Assay results from patent US8933018B2, “Boron containing polybasic bacterial efflux pump inhibitors and therapeutic uses thereof” (priority 2011, dated 2015).

The compounds below were run on P. aeruginosa, PAM1723, overexpressing the MexAB-OprM efflux pump. Conditions: lowest EPI concentration giving antibacterial activity with levofloxacin at 1/8 of its MIC, MHB, 20 h at 35° C.
Assay type: cell-based, Pseudomonas aeruginosa
Protocol: All EPI compounds were readily soluble in water and stock solutions were prepared at a final concentration of 10 mg/ml. Stock solutions were further diluted, according to the needs of the particular assay, in Mueller Hinton Broth (MHB). Stock solution was stored at […].
The checkerboard assay was performed in microtiter plates. […] EPIs were diluted in the y-axis, each row containing a single concentration of an EPI. […] The assay was performed in MHB with a final bacterial inoculum of 5 times 10^5 CFU/ml (from an early-log phase culture). Microtiter plates were incubated during 20 h at 35° C. and were read using a microtiter plate reader (Molecular Devices) at 650 nm as well as visual observation using a microtiter plate-reading mirror.

Row | SMILES | MPC8 (Minimum Potentiating Concentration)
1 | CC1(C)OB(O)c2cc(NC(=O)[C@@H](Cc3ccc(C(F)(F)F)cc3)NC(=O)[C@@H](N)CCC(=O)N3C[C@@H](N)C[C@H](N)C3)ccc21 [Compound 74, (S)-2-amino-5-((3S,5S)-3,5-diaminopiperidin-1-yl)-N-((R)-1-(1-hydroxy-3,3-dimethyl-1,3-dihydrobenzo[c][1,2]oxaborol-6-ylamino)-1-oxo-3-(4-(trifluoromethyl)phenyl)propan-2-yl)-5-oxopentanamide] | B (B = MPC8 of 2.5 μg/ml to less than 10 μg/mL.)
2 | NCCN(CCN)C(=O)CC[C@H](N)C(=O)N[C@H](Cc1ccc(C(F)(F)F)cc1)C(=O)Nc1ccc(C(F)(F)F)c(B(O)O)c1 [Compound 16, 5-((R)-2-((S)-2-amino-5-(bis(2-aminoethyl)amino)-5-oxopentanamido)-3-(4-(trifluoromethyl)phenyl)propanamido)-2-(trifluoromethyl)phenylboronic acid] | C (C = MPC8 of 10 μg/mL or greater.)
3 | CC1(C)OB(O)c2cc(NC(=O)[C@@H](Cc3ccc(C(F)(F)F)cc3)NC(=O)[C@@H](N)CCC(=O)N3C[C@@H](N)C[C@H]3CN)ccc21 [Compound 75, (S)-2-amino-5-((2S,4S)-4-amino-2-(aminomethyl)pyrrolidin-1-yl)-N-((R)-1-(1-hydroxy-3,3-dimethyl-1,3-dihydrobenzo[c][1,2]oxaborol-6-ylamino)-1-oxo-3-(4-(trifluoromethyl)phenyl)propan-2-yl)-5-oxopentanamide] | B (B = MPC8 of 2.5 μg/ml to less than 10 μg/mL.)
4 | CC1(C)OB(O)c2ccc(CNC(=O)[C@@H](CCc3ccc(C(F)(F)F)cc3)NC(=O)[C@@H](N)CCC(=O)N(CCN)CCN)cc21 [Compound 93, (S)-2-amino-N^5,N^5-bis(2-aminoethyl)-N^1-((R)-1-((1-hydroxy-3,3-dimethyl-1,3-dihydrobenzo[c][1,2]oxaborol-5-yl)methylamino)-1-oxo-4-(4-(trifluoromethyl)phenyl)butan-2-yl)pentanediamide] | B (B = MPC8 of 2.5 μg/ml to less than 10 μg/mL.)
5 | CC1(C)OB(O)c2ccc(CNC(=O)[C@@H](Cc3ccc(C(F)(F)F)cc3)NC(=O)[C@@H](N)CCC(=O)N(CCN)CCN)cc21 [Compound 90, (S)-2-amino-N^5,N^5-bis(2-aminoethyl)-N^1-((R)-1-((1-hydroxy-3,3-dimethyl-1,3-dihydrobenzo[c][1,2]oxaborol-5-yl)methylamino)-1-oxo-3-(4-(trifluoromethyl)phenyl)propan-2-yl)pentanediamide] | B (B = MPC8 of 2.5 μg/ml to less than 10 μg/mL.)
6 | NCCN(CCN)C(=O)C[C@H](N)C(=O)N[C@H](Cc1ccc(C(F)(F)F)cc1)C(=O)Nc1ccc2c(c1)B(O)OC2 [Compound 5, (S)-2-amino-N4,N4-bis(2-aminoethyl)-N1-((R)-1-(1-hydroxy-1,3-dihydrobenzo[c][1,2]oxaborol-6-ylamino)-1-oxo-3-(4-(trifluoromethyl)phenyl)propan-2-yl)succinamide] | C (C = MPC8 of 10 μg/mL or greater.)
7 | NCCN(CCN)C(=O)CC[C@H](N)C(=O)N[C@H](CCc1ccc(C(F)(F)F)cc1)C(=O)Nc1ccc(B(O)O)c(F)c1 [Compound 29, 4-((R)-2-((S)-2-amino-5-(bis(2-aminoethyl)amino)-5-oxopentanamido)-4-(4-(trifluoromethyl)phenyl)butanamido)-2-fluorophenylboronic acid] | B (B = MPC8 of 2.5 μg/ml to less than 10 μg/mL.)
8 | CC1(C)OB(O)c2cc(NC(=O)[C@@H](CCc3ccc(C(F)(F)F)cc3)NC(=O)[C@@H](N)CCC(=O)NCC(O)(CN)CN)ccc21 [Compound 27, (S)-2-amino-N5-(3-amino-2-(aminomethyl)-2-hydroxypropyl)-N1-((R)-1-(1-hydroxy-3,3-dimethyl-1,3-dihydrobenzo[c][1,2]oxaborol-6-ylamino)-1-oxo-4-(4-(trifluoromethyl)phenyl)butan-2-yl)pentanediamide] | B (B = MPC8 of 2.5 μg/ml to less than 10 μg/mL.)
9 | NCCN(CCN)C(=O)CC[C@H](N)C(=O)N[C@H](CCc1ccc(C(F)(F)F)cc1)C(=O)NCC1OB(O)c2ccccc21 (stereo in doubt) [Compound 36, (S)-2-amino-N5,N5-bis(2-aminoethyl)-N1-((R)-1-(((R)-1-hydroxy-1,3-dihydrobenzo[c][1,2]oxaborol-3-yl)methylamino)-1-oxo-4-(4-(trifluoromethyl)phenyl)butan-2-yl)pentanediamide] | B (B = MPC8 of 2.5 μg/ml to less than 10 μg/mL.)
10 | NCCN(CCN)C(=O)CC[C@H](N)C(=O)N[C@H](CCc1ccc(C(F)(F)F)cc1)C(=O)NC[C@@H]1OB(O)c2ccccc21 [Compound 37, (S)-2-amino-N5,N5-bis(2-aminoethyl)-N1-((R)-1-(((R)-1-hydroxy-1,3-dihydrobenzo[c][1,2]oxaborol-3-yl)methylamino)-1-oxo-4-(4-(trifluoromethyl)phenyl)butan-2-yl)pentanediamide] | A (A = MPC8 of less than 2.5 μg/mL.)
11 | CC1(C)OB(O)c2ccc(NC(=O)[C@@H](Cc3ccc(C(F)(F)F)cc3)NC(=O)[C@@H](N)CCC(=O)N(CCN)CCN)cc21 [Compound 84, (S)-2-amino-N^5,N^5-bis(2-aminoethyl)-N^1-((R)-1-(1-hydroxy-3,3-dimethyl-1,3-dihydrobenzo[c][1,2]oxaborol-5-ylamino)-1-oxo-3-(4-(trifluoromethyl)phenyl)propan-2-yl)pentanediamide] | B (B = MPC8 of 2.5 μg/ml to less than 10 μg/mL.)
12 | NCCN(CCN)C(=O)CC[C@H](N)C(=O)N[C@H](CCc1ccc(C(F)(F)F)cc1)C(=O)Nc1cc2c(c(C(F)(F)F)c1)COB2O [Compound 31, (S)-2-amino-N5,N5-bis(2-aminoethyl)-N1-((R)-1-(1-hydroxy-4-(trifluoromethyl)-1,3-dihydrobenzo[c][1,2]oxaborol-6-ylamino)-1-oxo-4-(4-(trifluoromethyl)phenyl)butan-2-yl)pentanediamide] | B (B = MPC8 of 2.5 μg/ml to less than 10 μg/mL.)
13 | CC1(C)OB(O)c2cc(NC[C@@H](CCc3ccc(C(F)(F)F)cc3)NC(=O)[C@@H](N)CCC(=O)N(CCN)CCN)ccc21 [Compound 107, (S)-2-amino-N^5,N^5-bis(2-aminoethyl)-N^1-((R)-1-(1-hydroxy-3,3-dimethyl-1,3-dihydrobenzo[c][1,2]oxaborol-6-ylamino)-4-(4-(trifluoromethyl)phenyl)butan-2-yl)pentanediamide] | A (A = MPC8 of less than 2.5 μg/mL.)
14 | NCCN(CCN)C(=O)CC[C@H](N)C(=O)N[C@H](CCc1ccc(C(F)(F)F)cc1)C(=O)Nc1ccc(B(O)O)cc1F [Compound 35, 4-((R)-2-((S)-2-amino-5-(bis(2-aminoethyl)amino)-5-oxopentanamido)-4-(4-(trifluoromethyl)phenyl)butanamido)-3-fluorophenylboronic acid] | B (B = MPC8 of 2.5 μg/ml to less than 10 μg/mL.)
15 | NCC(O)(CN)CNC(=O)CC[C@H](N)C(=O)N[C@H](CCc1ccc(C(F)(F)F)cc1)C(=O)Nc1cc(B(O)O)cc(C(F)(F)F)c1 [Compound 21, 3-((R)-2-((S)-2-amino-5-(3-amino-2-(aminomethyl)-2-hydroxypropylamino)-5-oxopentanamido)-4-(4-(trifluoromethyl)phenyl)butanamido)-5-(trifluoromethyl)phenylboronic acid] | B (B = MPC8 of 2.5 μg/ml to less than 10 μg/mL.)
16 | CC1(C)OB(O)c2cc(NC(=O)[C@@H](CCc3ccc(C(F)(F)F)cc3)NC(=O)[C@@H](N)CCC(=O)NC(CN)CN)ccc21 [Compound 39, (S)-2-amino-N^5-(1,3-diaminopropan-2-yl)-N^1-((R)-1-(1-hydroxy-3,3-dimethyl-1,3-dihydrobenzo[c][1,2]oxaborol-6-ylamino)-1-oxo-4-(4-(trifluoromethyl)phenyl)butan-2-yl)pentanediamide] | A (A = MPC8 of less than 2.5 μg/mL.)
17 | NCCN(CCN)C(=O)CC[C@H](N)C(=O)N[C@H](CCc1ccc(C(F)(F)F)cc1)C(=O)Nc1cnc2ccc(B(O)O)cc2c1 [Compound 44, 3-((R)-2-((S)-2-amino-5-(bis(2-aminoethyl)amino)-5-oxopentanamido)-4-(4-(trifluoromethyl)phenyl)butanamido)quinolin-6-ylboronic acid] | A (A = MPC8 of less than 2.5 μg/mL.)
18 | NCCN(CCN)C(=O)C[C@H](N)C(=O)N[C@H](Cc1ccc(C(F)(F)F)cc1)C(=O)Nc1cc(B(O)O)cc(C(F)(F)F)c1 [Compound 10, 3-((R)-2-((S)-2-amino-4-(bis(2-aminoethyl)amino)-4-oxobutanamido)-3-(4-(trifluoromethyl)phenyl)propanamido)-5-(trifluoromethyl)phenylboronic acid] | B (B = MPC8 of 2.5 μg/ml to less than 10 μg/mL.)
19 | N[C@@H]1C[C@H](N)CN(C(=O)CC[C@H](N)C(=O)N[C@H](CCc2ccc(C(F)(F)F)cc2)C(=O)Nc2cccc(B(O)O)c2)C1 [Compound 24, 3-((R)-2-((S)-2-amino-5-((3R,5S)-3,5-diaminopiperidin-1-yl)-5-oxopentanamido)-4-(4-(trifluoromethyl)phenyl)butanamido)phenylboronic acid] | B (B = MPC8 of 2.5 μg/ml to less than 10 μg/mL.)
20 | N[C@@H]1CC(NC(=O)CC[C@H](N)C(=O)N[C@H](Cc2ccc(C(F)(F)F)cc2)C(=O)Nc2cc(B(O)O)cc(C(F)(F)F)c2)C[C@H](N)C1 (stereo partly drawn) [Compound 19, 3-((R)-2-((S)-2-amino-5-((1R,3R,5S)-3,5-diaminocyclohexylamino)-5-oxopentanamido)-3-(4-(trifluoromethyl)phenyl)propanamido)-5-(trifluoromethyl)phenylboronic acid] | B (B = MPC8 of 2.5 μg/ml to less than 10 μg/mL.)
